Patent US12473304B2, “Heterocyclic PAD4 inhibitors” (BRISTOL-MYERS SQUIBB COMPANY, priority 2020, dated 2025)

target: human PAD4 (hPAD4) (Homo sapiens (Human), UniProt Q9UM07); test: RFMS Human PAD4 Functional Assay 1; format: biochemical; conditions: RFMS assay 1; 5 nM hPAD4, 250 μM BAEE substrate, 50 μM calcium, 37° C.
Outline: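 Citrullination product read by RapidFire triple-quad MRM against a modified-citrulline internal standard, after TCA stop and 30 min phenyl glyoxal step at 37 °C. Reaction: 250 μM BAEE, 5 nM human PAD4, 90 min at 37 °C, pH 7.5 HEPES buffer with 50 μM calcium and 5 μM TPEN, following 30 min compound–enzyme preincubation (max 50 μM).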

human PAD4 (hPAD4), sequence (Q9UM07 whole entry): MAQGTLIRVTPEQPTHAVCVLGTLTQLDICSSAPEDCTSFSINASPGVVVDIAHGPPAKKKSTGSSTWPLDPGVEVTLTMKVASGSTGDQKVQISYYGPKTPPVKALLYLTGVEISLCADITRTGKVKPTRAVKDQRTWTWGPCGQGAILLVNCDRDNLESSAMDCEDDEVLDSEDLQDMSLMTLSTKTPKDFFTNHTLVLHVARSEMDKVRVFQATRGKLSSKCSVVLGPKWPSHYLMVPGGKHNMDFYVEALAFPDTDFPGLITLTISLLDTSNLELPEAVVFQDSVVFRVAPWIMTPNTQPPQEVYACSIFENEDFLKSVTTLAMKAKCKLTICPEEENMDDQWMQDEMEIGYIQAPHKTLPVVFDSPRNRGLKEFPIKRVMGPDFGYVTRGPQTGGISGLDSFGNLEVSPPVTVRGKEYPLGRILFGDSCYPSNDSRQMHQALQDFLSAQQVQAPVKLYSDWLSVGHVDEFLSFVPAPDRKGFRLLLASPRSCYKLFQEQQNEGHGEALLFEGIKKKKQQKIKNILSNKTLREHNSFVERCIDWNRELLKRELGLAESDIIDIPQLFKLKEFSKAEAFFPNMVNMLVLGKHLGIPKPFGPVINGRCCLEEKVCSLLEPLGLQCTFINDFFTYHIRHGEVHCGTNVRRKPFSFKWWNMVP

Structure (SMILES) | IC50
COc1cc(C(=O)N2C[C@H](N)C[C@@H](F)C2)cn2nc(-c3cc4cccc(C5CCN(C(=O)[C@H](C)OC)CC5)c4n3CC3CC3)c(C)c12 [Example 404, (S)-1-(4-(2-(6-((3R,5R)-3-Amino-5-fluoropiperidine-1-carbonyl)-4-methoxy-3-methylpyrazolo[1,5-a]pyridin-2-yl)-1-(cyclopropylmethyl)-1H-indol-7-yl)piperidin-1-yl)-2-methoxypropan-1-one] | 0.03 µM
COCC(=O)N1CCC(c2cccc3cc(-c4nn5cc(C(=O)N6C[C@H](N)C[C@@H](F)C6)cc(OC)c5c4C)n(CC4CC4)c23)CC1 [Example 405, 1-(4-(2-(6-((3R,5R)-3-Amino-5-fluoropiperidine-1-carbonyl)-4-methoxy-3-methylpyrazolo[1,5-a]pyridin-2-yl)-1-(cyclopropylmethyl)-1H-indol-7-yl)piperidin-1-yl)-2-methoxyethan-1-one] | 0.02 µM
COc1cc(C(=O)N2CCC[C@@H](N)C2)cn2nc(-c3cc4cccc(C5CCN(C(=O)[C@H]6CC[C@@H](O)CC6)CC5)c4n3CC3CC3)c(C)c12 [Example 406, ((R)-3-Aminopiperidin-1-yl)(2-(1-(cyclopropylmethyl)-7-(1-((1s,4s)-4-hydroxycyclohexane-1-carbonyl)piperidin-4-yl)-1H-indol-2-yl)-4-methoxy-3-methylpyrazolo[1,5-a]pyridin-6-yl)methanone] | 0.09 µM
COc1cc(C(=O)N2C[C@H](N)C[C@@H](F)C2)cn2nc(-c3cc4cccc(C5CCN(C(=O)[C@H]6CC[C@@H](O)CC6)CC5)c4n3CC3CC3)c(C)c12 [Example 407, ((3R,5R)-3-Amino-5-fluoropiperidin-1-yl)(2-(1-(cyclopropylmethyl)-7-(1-((1s,4s)-4-hydroxycyclohexane-1-carbonyl)piperidin-4-yl)-1H-indol-2-yl)-4-methoxy-3-methylpyrazolo[1,5-a]pyridin-6-yl)methanone] | 0.03 µM
COc1cc(C(=O)N2CCC[C@@H](N)C2)cn2nc(-c3cc4cccc(C5CCN(C(=O)[C@H]6CC[C@H](O)CC6)CC5)c4n3CC3CC3)c(C)c12 [Example 408, ((R)-3-Aminopiperidin-1-yl)(2-(1-(cyclopropylmethyl)-7-(1-((1r,4r)-4-hydroxycyclohexane-1-carbonyl)piperidin-4-yl)-1H-indol-2-yl)-4-methoxy-3-methylpyrazolo[1,5-a]pyridin-6-yl)methanone] | 0.04 µM
COc1cc(C(=O)N2C[C@H](N)C[C@@H](F)C2)cn2nc(-c3cc4cccc(C5CCN(C(=O)[C@H]6CC[C@H](O)CC6)CC5)c4n3CC3CC3)c(C)c12 [Example 409, ((3R,5R)-3-Amino-5-fluoropiperidin-1-yl)(2-(1-(cyclopropylmethyl)-7-(1-((1r,4r)-4-hydroxycyclohexane-1-carbonyl)piperidin-4-yl)-1H-indol-2-yl)-4-methoxy-3-methylpyrazolo[1,5-a]pyridin-6-yl)methanone] | 0.04 µM
COc1cc(C(=O)N2CCC[C@@H](N)C2)cn2nc(-c3cc4cccc(C5CCN(C(C)=O)CC5)c4n3CC3CC3)c(C)c12 [Example 410, (R)-1-(4-(2-(6-(3-Aminopiperidine-1-carbonyl)-4-methoxy-3-methylpyrazolo[1,5-a]pyridin-2-yl)-1-(cyclopropylmethyl)-1H-indol-7-yl)piperidin-1-yl)ethan-1-one] | 0.09 µM
COc1cc(C(=O)N2C[C@H](N)C[C@@H](F)C2)cn2nc(-c3cc4cccc(C5CCN(C(C)=O)CC5)c4n3CC3CC3)c(C)c12 [Example 411, 1-(4-(2-(6-((3R,5R)-3-Amino-5-fluoropiperidine-1-carbonyl)-4-methoxy-3-methylpyrazolo[1,5-a]pyridin-2-yl)-1-(cyclopropylmethyl)-1H-indol-7-yl)piperidin-1-yl)ethan-1-one] | 0.11 µM
COc1cc(C(=O)N2CC3CCC2[C@@H]3N)cn2nc(-c3cc4cccc(C5CCN(C(C)=O)CC5)c4n3CC3CC3)c(C)c12 (stereo partly drawn) [Example 412, 1-(4-(2-(6-((7R)-7-Amino-2-azabicyclo[2.2.1]heptane-2-carbonyl)-4-methoxy-3-methylpyrazolo[1,5-a]pyridin-2-yl)-1-(cyclopropylmethyl)-1H-indol-7-yl)piperidin-1-yl)ethan-1-one] | 0.01 µM
CC(=O)N1CCC(c2cccc3cc(-c4nn5cc(C(=O)N6CCC[C@@H](N)C6)cc(F)c5c4C)n(CC4CC4)c23)CC1 [Example 413, (R)-1-(4-(2-(6-(3-Aminopiperidine-1-carbonyl)-4-fluoro-3-methylpyrazolo[1,5-a]pyridin-2-yl)-1-(cyclopropylmethyl)-1H-indol-7-yl)piperidin-1-yl)ethan-1-one] | 0.03 µM
Cc1c(-c2cc3cccc(C4CCN(C(=O)[C@H]5CC[C@H](O)CC5)CC4)c3n2CC2CC2)nn2cc(C(=O)N3C[C@H](N)C[C@@H](F)C3)cc(F)c12 [Example 414, ((3R,5R)-3-Amino-5-fluoropiperidin-1-yl)(2-(1-(cyclopropylmethyl)-7-(1-((1r,4r)-4-hydroxycyclohexane-1-carbonyl)piperidin-4-yl)-1H-indol-2-yl)-4-fluoro-3-methylpyrazolo[1,5-a]pyridin-6-yl)methanone] | 0.26 µM
Cc1c(-c2cc3cccc(C4CCN(C(=O)[C@H]5CC[C@H](O)CC5)CC4)c3n2CC2CC2)nn2cc(C(=O)N3CCC[C@@H](N)C3)cc(F)c12 [Example 415, ((R)-3-Aminopiperidin-1-yl)(2-(1-(cyclopropylmethyl)-7-(1-((1r,4r)-4-hydroxycyclohexane-1-carbonyl)piperidin-4-yl)-1H-indol-2-yl)-4-fluoro-3-methylpyrazolo[1,5-a]pyridin-6-yl)methanone] | 0.46 µM
Cc1c(-c2cc3cccc(C4CCN(C(=O)[C@H]5CC[C@@H](O)CC5)CC4)c3n2CC2CC2)nn2cc(C(=O)N3C[C@H](N)C[C@@H](F)C3)cc(F)c12 [Example 416, ((3R,5R)-3-Amino-5-fluoropiperidin-1-yl)(2-(1-(cyclopropylmethyl)-7-(1-((1s,4s)-4-hydroxycyclohexane-1-carbonyl)piperidin-4-yl)-1H-indol-2-yl)-4-fluoro-3-methylpyrazolo[1,5-a]pyridin-6-yl)methanone] | 0.56 µM
COC(C)(C)C(=O)N1CCC(c2cccc3cc(-c4nn5cc(C(=O)N6C[C@H](N)C[C@@H](F)C6)cc(F)c5c4C)n(CC4CC4)c23)CC1 [Example 417, 1-(4-(2-(6-((3R,5R)-3-Amino-5-fluoropiperidin-1-carbonyl)-4-fluoro-3-methylpyrazolo[1,5-a]pyridin-2-yl)-1-(cyclopropylmethyl)-1H-indol-7-yl)piperidin-1-yl)-2-methoxy-2-methylpropan-1-one] | 5.06 µM
COC(C)(C)C(=O)N1CCC(c2cccc3cc(-c4nn5cc(C(=O)N6CCC[C@@H](N)C6)cc(F)c5c4C)n(CC4CC4)c23)CC1 [Example 418, (R)-1-(4-(2-(6-(3-Aminopiperidin-1-carbonyl)-4-fluoro-3-methylpyrazolo[1,5-a]pyridin-2-yl)-1-(cyclopropylmethyl)-1H-indol-7-yl)piperidin-1-yl)-2-methoxy-2-methylpropan-1-one] | 1.71 µM
CO[C@@H](C)C(=O)N1CCC(c2cccc3cc(-c4nn5cc(C(=O)N6C[C@H](N)C[C@@H](F)C6)cc(F)c5c4C)n(CC4CC4)c23)CC1 [Example 423, (S)-1-(4-(2-(6-((3R,5R)-3-Amino-5-fluoropiperidine-1-carbonyl)-4-fluoro-3-methylpyrazolo[1,5-a]pyridin-2-yl)-1-(cyclopropylmethyl)-1H-indol-7-yl)piperidin-1-yl)-2-methoxypropan-1-one] | 0.15 µM
CO[C@@H](C)C(=O)N1CCC(c2cccc3cc(-c4nn5cc(C(=O)N6CCC[C@@H](N)C6)cc(F)c5c4C)n(CC4CC4)c23)CC1 [Example 424, (S)-1-(4-(2-(6-((R)-3-Aminopiperidine-1-carbonyl)-4-fluoro-3-methylpyrazolo[1,5-a]pyridin-2-yl)-1-(cyclopropylmethyl)-1H-indol-7-yl)piperidin-1-yl)-2-methoxypropan-1-one] | 0.08 µM
CO[C@H](C)C(=O)N1CCC(c2cccc3cc(-c4nn5cc(C(=O)N6C[C@H](N)C[C@@H](F)C6)cc(F)c5c4C)n(CC4CC4)c23)CC1 [Example 425, (R)-1-(4-(2-(6-((3R,5R)-3-Amino-5-fluoropiperidine-1-carbonyl)-4-fluoro-3-methylpyrazolo[1,5-a]pyridin-2-yl)-1-(cyclopropylmethyl)-1H-indol-7-yl)piperidin-1-yl)-2-methoxypropan-1-one] | 0.05 µM
CO[C@H](C)C(=O)N1CCC(c2cccc3cc(-c4nn5cc(C(=O)N6CCC[C@@H](N)C6)cc(F)c5c4C)n(CC4CC4)c23)CC1 [Example 426, (R)-1-(4-(2-(6-((R)-3-Aminopiperidine-1-carbonyl)-4-fluoro-3-methylpyrazolo[1,5-a]pyridin-2-yl)-1-(cyclopropylmethyl)-1H-indol-7-yl)piperidin-1-yl)-2-methoxypropan-1-one] | 0.05 µM
CC(=O)N1CCC(c2cccc3cc(-c4nn5cc(C(=O)N6C[C@H](N)C[C@@H](F)C6)cc(F)c5c4C)n(CC4CC4)c23)CC1 [Example 427, 1-(4-(2-(6-((3R,5R)-3-Amino-5-fluoropiperidine-1-carbonyl)-4-fluoro-3-methylpyrazolo[1,5-a]pyridin-2-yl)-1-(cyclopropylmethyl)-1H-indol-7-yl)piperidin-1-yl)ethan-1-one] | 0.02 µM
COCC(=O)N1CCC(c2cccc3cc(-c4nn5cc(C(=O)N6C[C@H](N)C[C@@H](F)C6)cc(F)c5c4C)n(CC4CC4)c23)CC1 [Example 428, 1-(4-(2-(6-((3R,5R)-3-Amino-5-fluoropiperidine-1-carbonyl)-4-fluoro-3-methylpyrazolo[1,5-a]pyridin-2-yl)-1-(cyclopropylmethyl)-1H-indol-7-yl)piperidin-1-yl)-2-methoxyethan-1-one] | 0.03 µM
